Patent US8193353B2, “6-1H-imidazo-quinazoline and quinolines derivatives, new potent analgesics and anti-inflammatory agents” (Rottapharm S.p.A, priority 2006, dated 2012)
Like-named read-outs stand apart in the source and are kept apart here.

Experiments:
IL-6 = IL-6 production in IL-1 stimulated human chondrosarcoma cell line; format: cell-based
Excerpt: (§1) The compounds of the invention have been found effective in interfering with COX-2 and cytokines production, in several cell lines; examples of these effects are reported in Table 3, for COX-2 and IL-1β and IL-6 cytokines, in IL-1 stimulated human chondrosarcoma cell line.

IL-1β = IL-1β production in IL-1 stimulated human chondrosarcoma cell line; format: cell-based
Excerpt: as §1

COX-2 = COX-2 production in IL-1 stimulated human chondrosarcoma cell line; format: cell-based; details: for inhibition at 0.3 µM / inhibition at 1 µM / inhibition at 10 µM: Homo sapiens
Excerpt: as §1

[1] = system: mechanical hyperalgesia associated with STZ-induced diabetes; experiment: STZ-induced diabetes mechanical hyperalgesia (neuropathic pain); format: in vivo, rat; details: for ED50: Rattus norvegicus, ip, read-out: ED50 0.5 hrs; for ED100 0.5 hrs: i.p.
Description: Painful diabetic neuropathy is one of the most common complications of insulin-dependent diabetes in man; in particular, diabetes can be associated with neuropathic pain which fails to be treated by classical analgesics. Streptozotocin (STZ)-induced diabetes in the rat has been increasingly used as a model of painful diabetic neuropathy to assess the efficacies of potential analgesic agents (C. Courteix, Pain 1993, 53, 81-8). The compounds of the invention were tested for efficacy in reducing mechanical hyperalgesia associated with STZ-induced diabetes in the rat, according to the experimental model as described by the literature. Diabetes was produced with the injection of a single dose (75 mg/Kg i.p.) of STZ. In the following four weeks after the induction of diabetes the clinical symptoms (weight, body and skin temperature, motility and hyperglycemia) progressively developed by the animals, are strictly monitored. After four weeks, the scores obtained in diabetic rats to various pain stimuli (in particular mechanical stimuli) were greater than those in normal rats, indicating hyperalgesia. The hyperalgesia induced by diabetes was evaluated using the Randall-Selitto method as above described, and quantitated using the analgesimeter. Also in this case, the difference in the mechanical pain threshold between the basal value (generally 230-250 g) and the one tolerated by the animals treated with the drug, is defined as mechanical hyperalgesia. The compounds of the invention were administered i.p. (solution, Tween 80, 10% in saline) at different doses, and mechanical hyperalgesia was measured at the reported time, as maximum percent effect (MPE) which represents the difference (%) in pain threshold between the animals treated with the drug and the controls that received only the vehicle, compared with the weight borne by naïf non-diabetic controls. A 100% protection means that the diabetic animals treated with the compound can tolerate the same stimulus (weight) as the naïf non-diabetic animals. MPE higher than 100% means that the diabetic animal treated with the compound can tolerate stimuli (weight) higher than the control non-diabetic animals (hypoalgesia).
In particular, from the MPE data at 0.5 hrs, the doses yielding a protection of 50% (ED50) and 100% (ED100) have been calculated.

[2] = system: Zymosan induced paw volume increase; experiment: Zymosan-induced paw oedema; format: in vivo, rat; details: oral, 2 hours after challenge
Description: (§2) The interplantar injection of Zymosan-induced mechanical hyperalgesia was used as a model of inflammatory pain (Meller, Neuropharmacology, 1994, 33, 1471-1478). In this model, typically a male Sprague-Dawley or Wistar rat (200-250 g) receives an interplantar injection of 3 mg/100 μl zymosan into one hind paw. A marked inflammation occurs in this hind paw. Drugs are administered orally for evaluation of efficacy, 30 min. before the inflammatory insult. The hyperalgesia induced by zymosan administration was evaluated using the Randall-Selitto method (Arch. Int. Pharmacodyn., 1957, 111, 409). The quantitation of the analgesic effect is achieved by an analgesimeter, which consist in applying to the inflamed paw an increasing weight (from 130-140 g up to 500 g). The difference in the mechanical pain threshold between the basal value (generally 230-250 g) and the one tolerated by the animals treated with the drug, determined 4 hours after the inflammatory challenge, is defined as mechanical hyperalgesia. Mechanical hyperalgesia is expressed for the compounds of the invention as ED50, which is the dose of the administered compound able to increase the pain threshold by 50% in comparison with the group of control animals. The corresponding ED100, representing the dose able of reducing of 100% the pain threshold, can be calculated for those cases where there is a linear dose-response relationship. In vivo anti-inflammatory effect exerted by the compound of the invention can be assessed in the same Zymosan induced inflammation test described above, by measuring the volume of the oedema induced by the inflammatory agent. The oedema was evaluated as the increase in the volume of the Zymosan injected paw within a time of 0-2 hrs. The measurements of the variation of the oedema volume of the paw were recorded using hydroplethysmometer, which consists of two plastic cuvettes containing a surfactant liquid, the larger one being used for immersion of the paw, connected to the smaller one which contains a transducer capable of recording small displacements of the volume used for the measure. The paw is immersed in the cuvettes up to the tibiotarsal joint. The volume of the liquid displaced is proportional to the extent of the inflammation. The efficacy of the compounds of the invention in preventing oedema formation is expressed as ED30, is measured 2 hours after the inflammatory challenge, and represents the dose able of reducing of 30%, the Zymosan induced paw volume increase in comparison to control animals (animals treated with Zymosan but treated with only distilled water instead of the testing compound). The corresponding ED50, representing the dose able of reducing of 50% the Zymosan induced paw volume increase, can be calculated for those cases where there is a linear dose-response relationship. In both the experiments, for each test compound, at least three doses were used, with 10 animals per group. Compounds of the invention were tested at 10, 20 and 40 mg/Kg.

[3] = system: CFA-induced prolonged inflammation; experiment: CFA model of chronic inflammatory pain; format: in vivo, rat; details: for ED50: Rattus norvegicus, ip; for ED50 / ED100 0.5 hrs: calculated from MPE data at 0.5 hrs; for ED100 0.5 hrs: i.p.
[4] = system: Zymosan-induced mechanical hyperalgesia; experiment: Zymosan-induced mechanical hyperalgesia (Randall-Selitto), inflammatory pain; format: in vivo, rat; details: for ED50: Rattus norvegicus, read-out: Analgesia ED50
Description: as §2

[5] = calculated from MPE data at 0.5 hrs
[6] = oral, 30 min before zymosan, 4 hours after challenge

c1cn(-c2ccc3nc(-c4ccc5c(c4)OCCO5)ncc3c2)cn1 [Example 5]
inhibition at 10 µM (IL-6; 10 μM): 35% | inhibition at 0.3 µM (IL-1β): 20% | inhibition at 1 µM (IL-1β): 30% | inhibition at 10 µM (IL-1β): 40% | inhibition at 0.3 µM (COX-2): 50% | inhibition at 1 µM (COX-2): 60% | inhibition at 10 µM (COX-2): 70%

c1ccc(-c2ncc3cc(-n4ccnc4)ccc3n2)cc1 [Example 1, [2-phenyl-6-(1H-imidazol-1-yl)]quinazoline]
inhibition at 0.3 µM (IL-6): 35% | inhibition at 0.3 µM (IL-1β): 10% | MPE 0.5 hrs. ([1]; 3 mg/kg i.p.): 24% | MPE 0.5 hrs. ([1]; 10 mg/kg i.p.): 41% | MPE 1.5 hrs. ([1]; 10 mg/kg i.p.): 68% | MPE 0.5 hrs. ([1]; 30 mg/kg i.p.): 236% | MPE 1.5 hrs. ([1]; 30 mg/kg i.p.): 225% | MPE 3 hrs. ([1]; 30 mg/kg i.p.): 171% | MPE 6 hrs. ([1]; 30 mg/kg i.p.): 34% | ED50 [1, 5]: 5.5 mg/kg | ED100 0.5 hrs [1, 5]: 9.6 mg/kg | ED50 ([2]; Rattus norvegicus, read-out: Oedema Reduction ED50): 97 mg/kg | Oedema Reduction ED30 [2]: 7.3 mg/kg | MPE 0.5 hrs. ([3]; 3 mg/kg i.p.): 52% | MPE 1.5 hrs. ([3]; 3 mg/kg i.p.): 4% | MPE 0.5 hrs. ([3]; 10 mg/kg i.p.): 67% | MPE 1.5 hrs. ([3]; 10 mg/kg i.p.): 63% | MPE 3 hrs. ([3]; 10 mg/kg i.p.): 29% | MPE 6 hrs. ([3]; 10 mg/kg i.p.): 22% | MPE 24 hrs. ([3]; 10 mg/kg i.p.): 5% | MPE 0.5 hrs. ([3]; 30 mg/kg i.p.): 367% | MPE 1.5 hrs. ([3]; 30 mg/kg i.p.): 368% | MPE 3 hrs. ([3]; 30 mg/kg i.p.): 321% | MPE 6 hrs. ([3]; 30 mg/kg i.p.): 239% | MPE 24 hrs. ([3]; 30 mg/kg i.p.): 60% | ED50 [3]: 5.5 mg/kg | ED100 0.5 hrs [3]: 9.6 mg/kg | inhibition at 0.3 µM (COX-2): 20% | ED50 [4, 6]: 6.5 mg/kg | Analgesia ED100 [4, 6]: 10 mg/kg

Cc1ccc(-c2cc(C(F)(F)F)nn2-c2ccc(S(N)(=O)=O)cc2)cc1 [Celecoxib]
Oedema Reduction ED30 [2]: 13.8 mg/kg | ED50 [4, 6]: 9 mg/kg | Analgesia ED100 [4, 6]: 1172 mg/kg

c1cn(-c2ccc3nc(-c4ccc5c(c4)OCO5)ncc3c2)cn1 [Example 3, [2-(1,3-benzodioxol-5-yl)-6-(1H-imidazol-1-yl)]quinazoline]
inhibition at 0.3 µM (IL-6): 20% | inhibition at 1 µM (IL-6; 1 μM): 35% | inhibition at 0.3 µM (IL-1β): 20% | inhibition at 1 µM (IL-1β): 15% | inhibition at 10 µM (IL-1β): 40% | MPE 0.5 hrs. ([1]; 3 mg/kg i.p.): 73% | MPE 1.5 hrs. ([1]; 3 mg/kg i.p.): 88% | MPE 3 hrs. ([1]; 3 mg/kg i.p.): 50% | MPE 6 hrs. ([1]; 3 mg/kg i.p.): 24% | MPE 0.5 hrs. ([1]; 10 mg/kg i.p.): 141% | MPE 1.5 hrs. ([1]; 10 mg/kg i.p.): 143% | MPE 3 hrs. ([1]; 10 mg/kg i.p.): 98% | MPE 6 hrs. ([1]; 10 mg/kg i.p.): 49% | MPE 0.5 hrs. ([1]; 30 mg/kg i.p.): 283% | MPE 1.5 hrs. ([1]; 30 mg/kg i.p.): 273% | MPE 3 hrs. ([1]; 30 mg/kg i.p.): 263% | MPE 6 hrs. ([1]; 30 mg/kg i.p.): 264% | ED50 [1, 5]: 2.9 mg/kg | ED100 0.5 hrs [1, 5]: 5.3 mg/kg | Oedema Reduction ED30 [2]: 172 mg/kg | MPE 0.5 hrs. ([3]; 3 mg/kg i.p.): 54% | MPE 1.5 hrs. ([3]; 3 mg/kg i.p.): 90% | MPE 3 hrs. ([3]; 3 mg/kg i.p.): 32% | MPE 6 hrs. ([3]; 3 mg/kg i.p.): 5% | MPE 0.5 hrs. ([3]; 10 mg/kg i.p.): 216% | MPE 1.5 hrs. ([3]; 10 mg/kg i.p.): 188% | MPE 3 hrs. ([3]; 10 mg/kg i.p.): 85% | MPE 6 hrs. ([3]; 10 mg/kg i.p.): 23% | MPE 24 hrs. ([3]; 10 mg/kg i.p.): 3% | MPE 0.5 hrs. ([3]; 30 mg/kg i.p.): 344% | MPE 1.5 hrs. ([3]; 30 mg/kg i.p.): 198% | MPE 3 hrs. ([3]; 30 mg/kg i.p.): 101% | MPE 6 hrs. ([3]; 30 mg/kg i.p.): 49% | MPE 24 hrs. ([3]; 30 mg/kg i.p.): 41% | ED50 [3]: 2.7 mg/kg | ED100 0.5 hrs [3]: 4.7 mg/kg | inhibition at 0.3 µM (COX-2): 35% | inhibition at 1 µM (COX-2): 64% | inhibition at 10 µM (COX-2): 75% | IC50 (COX-2; IL-1 stimulated human chondrosarcoma cell line, read-out: IC50 (inhibition of COX-2 production)): 630 nM | ED50 [4, 6]: 2.8 mg/kg | Analgesia ED100 [4, 6]: 5 mg/kg

COc1cccc(C2(O)CCCCC2CN(C)C)c1 (stereo not drawn) [Tramadol, reference compound]
MPE 0.5 hrs. ([1]; 3 mg/kg i.p.): 26% | MPE 1.5 hrs. ([1]; 3 mg/kg i.p.): 53% | MPE 3 hrs. ([1]; 3 mg/kg i.p.): 7% | MPE 0.5 hrs. ([1]; 10 mg/kg i.p.): 58% | MPE 1.5 hrs. ([1]; 10 mg/kg i.p.): 48% | MPE 3 hrs. ([1]; 10 mg/kg i.p.): 27% | MPE 0.5 hrs. ([1]; 30 mg/kg i.p.): 54% | MPE 1.5 hrs. ([1]; 30 mg/kg i.p.): 64% | MPE 3 hrs. ([1]; 30 mg/kg i.p.): 23% | MPE 0.5 hrs. ([1]; 50 mg/kg i.p.): 81% | MPE 1.5 hrs. ([1]; 50 mg/kg i.p.): 60% | MPE 3 hrs. ([1]; 50 mg/kg i.p.): 43% | ED50 ([1]; 0.5 h): 10.9 mg/kg | ED100 0.5 hrs ([1]; extrapolated from a dose-response curve approaching the 100% protection): 251 mg/kg | ED50 [4]: 25.7 mg/kg | Analgesia ED100 [4, 6]: 405 mg/kg

CN(C)CCC=C1c2ccccc2CCc2ccccc21 [Amitriptyline, reference compound]
MPE 0.5 hrs. ([1]; 3 mg/kg i.p.): 44% | MPE 1.5 hrs. ([1]; 3 mg/kg i.p.): 40% | MPE 3 hrs. ([1]; 3 mg/kg i.p.): 5% | MPE 0.5 hrs. ([1]; 10 mg/kg i.p.): 68% | MPE 1.5 hrs. ([1]; 10 mg/kg i.p.): 77% | MPE 0.5 hrs. ([1]; 30 mg/kg i.p.): 65% | MPE 1.5 hrs. ([1]; 30 mg/kg i.p.): 69% | MPE 3 hrs. ([1]; 30 mg/kg i.p.): 23%

CN1C(C(=O)Nc2ccccn2)=C(O)c2ccccc2S1(=O)=O [Piroxicam, reference compound]
MPE 0.5 hrs. ([3]; 30 mg/kg i.p.): 102% | MPE 1.5 hrs. ([3]; 30 mg/kg i.p.): 111% | MPE 3 hrs. ([3]; 30 mg/kg i.p.): 54% | MPE 6 hrs. ([3]; 30 mg/kg i.p.): 24% | MPE 24 hrs. ([3]; 30 mg/kg i.p.): 38%
